Measured values: patent publication US7879838B2, “Heteroaryl substituted pyrazinyl-piperazine-piperidines with CXCR3 antagonist activity” (Schering Corporation, priority 2005, dated 2011)

Target: T1, Human CXCR3 (N-delta 4) (Homo sapiens, UniProt P49682)
T1 construct: CD8 leader (N); Flag tag; expressed in transfected cells; membranes prepared
T1 sequence (P49682 5-368 limits assumed): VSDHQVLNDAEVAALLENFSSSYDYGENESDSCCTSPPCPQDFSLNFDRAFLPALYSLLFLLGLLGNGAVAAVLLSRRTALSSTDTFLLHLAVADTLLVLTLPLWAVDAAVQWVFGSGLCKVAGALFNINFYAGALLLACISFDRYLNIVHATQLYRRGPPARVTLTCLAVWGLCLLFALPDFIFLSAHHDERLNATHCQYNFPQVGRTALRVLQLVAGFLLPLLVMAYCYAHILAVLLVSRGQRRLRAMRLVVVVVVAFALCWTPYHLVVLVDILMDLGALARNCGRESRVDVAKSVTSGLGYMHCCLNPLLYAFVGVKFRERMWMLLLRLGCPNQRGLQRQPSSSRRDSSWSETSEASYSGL
Assay: Human CXCR3 (N-delta 4) scintillation proximity assay (SPA), [125I] IP-10 binding to Ba/F3-hCXCR3 membranes
Description: The inventive compounds can readily be evaluated to determine activity at The CXCR3 receptors by known methods, such as, for example, Development of Human CXCR3 (N-delta 4) Binding Assay.
Cloning and Expression of Human CXCR3 (N-delta 4):
The DNA encoding human CXCR3 was cloned by PCR using human genomic DNA (Promega, Madison, Wis.) as a template. The PCR primers were designed based on the published sequence of human orphan receptor GPR9 (1) with incorporated restriction sites, a Kozak consensus sequence, CD8 leader and Flag tag. The PCR product was subcloned into the mammalian expression vector pME18Sneo, a derivative of the SR-alpha expression vector (designated as pME18Sneo-hCXCR3 (N-delta 4).
IL-3-dependent mouse pro-B cells Ba/F3 were transfected by electroporation in 0.4 ml Dulbecco's PBS containing 4×10^6 cells with 20 μg of pME18Sneo-hCXCR3 (N-delta 4) plasmid DNA. Cells were pulsed at 400 Volts, 100 OHMs, 960 μFd. The transfected cells were under selection with 1 mg/ml G418 (Life Technologies, Gaithersburg, Md.). G418-resistant Ba/F3 clones were screened for CXCR3 expression by specific binding of [^125I] IP-10 (NEN Life Science Products, Boston, Mass.).
Preparation of Ba/F3-hCXCR3 (N-delta 4) Membranes
Ba/F3 cells expressing human CXCR3 (N-delta 4) were pelleted and resuspended in the lysis buffer containing 10 mM HEPES, pH 7.5 and Complete® protease inhibitors (1 tablet per 100 ml) (Boehringer Mannheim, Indianapolis, Ind.) at a cell density of 20×10^6 cells per ml. After 5 minutes incubation on ice, cells were transferred to 4639 cell disruption bomb (Parr Instrument, Moline, Ill.) and applied with 1,500 psi of nitrogen for 30 minutes on ice. Large cellular debris was removed by centrifugation at 1,000×g. Cell membrane in the supernatant was sedimented at 100,000×g. The membrane was resuspended in the lysis buffer supplemented with 10% sucrose and stored at −80° C. Total protein concentration of the membrane was determined by BCA method from Pierce (Rockford, Ill.).
Human CXCR3 (N-delta 4) Scintillation Proximity Assay (SPA)
For each assay point, 2 μg of membrane was preincubated for 1 hr with 300 μg wheat germ agglutinin (WGA) coated SPA beads (Amersham, Arlington Heights, Ill.) in the binding buffer (50 mM HEPES, 1 mM CaCl2, 5 mM MgCl2, 125 mM NaCl, 0.002% NaN3, 1.0% BSA) at room temperature. The beads were spun down, washed once, resuspended in the binding buffer and transferred to a 96-well Isoplate (Wallac, Gaithersburg, Md.). 25 pM of [^125I] IP-10 with tested compounds in a series of titration were added to start the reaction. After 3 hr reaction at room temperature, the amount of [^125I] IP-10 bound to the SPA beads was determined with a Wallac 1450 Microbeta counter.
The Ki values for the various example compounds of the present invention are given in the afore-mentioned Table 1. From these values, it would be apparent to the skilled artisan that the compounds of the invention have excellent utility CXCR3 antagonists.

[1] = IC50 rating, 25 pM [125I] IP-10, membranes of Ba/F3 cells expressing human CXCR3 (N-delta 4)

Row | SMILES | IC50 [1] [nM] | IC50 (human CXCR3 (N-delta 4) SPA) [nM]
1 | CC[C@H]1CN(c2nc(N)c(C(=O)NC(=N)NC)nc2Cl)CCN1C1CCN(C(=O)c2ccc(Cl)nc2N)CC1 [Compound No. 1] | < 25 | 0.7
2 | CCNC(=N)NC(=O)c1nc(Cl)c(N2CCN(C3CCN(C(=O)c4ccc(Cl)nc4N)CC3)[C@@H](CC)C2)nc1N [Compound No. 5] | < 25 | 
3 | CC[C@H]1CN(c2nc(N)c(C(=O)N[C@H]3CC[C@H]3O)nc2Cl)CCN1C1CCN(C(=O)c2ccc(Cl)nc2N)CC1 [Compound No. 15] | < 25 | 
4 | CC[C@H]1CN(c2nc(N)c(C(=O)OC)nc2Cl)CCN1C1CCN(C(=O)c2ccc(Cl)nc2N)CC1 [Compound No. 58] | 25 to 100 | 
5 | CC[C@H]1CN(c2ncc(C(=O)NC3CC3)nc2C)CCN1C1CCN(C(=O)c2ccc(Cl)nc2N)CC1 [Compound No. 155] | < 25 | 
6 | CCNC(=O)c1nc(C)c(N2CCN(C3CCN(C(=O)c4ccc(Cl)nc4N)CC3)[C@@H](CC)C2)nc1N [Compound No. 156] | < 25 | 
7 | CC[C@H]1CN(c2nc(N)c(C(=O)NC3CC3)nc2C)CCN1C1CCN(C(=O)c2ccc(Cl)nc2N)CC1 [Compound No. 157] | < 25 | 
8 | CC[C@H]1CN(c2nc(N)c(C(=O)NC[C@@H](C)O)nc2Cl)CCN1C1CCN(Cc2ccc(Cl)nc2N)CC1 [compound 2] | < 25 | 
9 | CC[C@H]1CN(c2nc(N)c(C(=O)NC(=N)N)nc2Cl)CCN1C1CCN(C(=O)c2ccc(Cl)nc2N)CC1 [compound 3] | < 25 | 
10 | CC[C@H]1CN(c2nc(N)c(C(=O)NC3CC3)nc2Cl)CCN1C1CCN(C(=O)c2ccc(Cl)nc2N)CC1 [compound 4] | < 25 | 
11 | CC[C@H]1CN(c2nc(N)c(C(=O)NC3CC3)nc2Cl)CCN1C1CCN(C(=O)c2cc(F)c(Cl)nc2N)CC1 [compound 6] | < 25 | 
12 | CC[C@H]1CN(c2nc(N)c(C(=O)NCCO)nc2Cl)CCN1C1CCN(C(=O)c2ccc(Cl)nc2N)CC1 [compound 7] | < 25 | 
13 | CC[C@H]1CN(c2nc(N)c(C(=O)NC[C@@H](C)O)nc2Cl)CCN1C1CCN(C(=O)c2ccc(Cl)nc2N)CC1 [compound 8] | < 25 | 
14 | CC[C@H]1CN(c2nc(N)c(C(=O)N[C@@H]3CC[C@@H]3O)nc2Cl)CCN1C1CCN(C(=O)c2ccc(Cl)nc2N)CC1 [compound 9] | < 25 | 
15 | CC[C@H]1CN(c2ncc(C(N)=O)nc2Cl)CCN1C1CCN(C(=O)c2ccc(Cl)nc2N)CC1 [compound 10] | < 25 | 
16 | CC[C@H]1CN(c2ncc(C(=O)NC[C@@H](C)O)nc2Cl)CCN1C1CCN(C(=O)c2ccc(Cl)nc2N)CC1 [compound 11] | < 25 | 
17 | CC[C@H]1CN(c2nc(N)c(C(=O)NCC(F)(F)F)nc2Cl)CCN1C1CCN(C(=O)c2ccc(Cl)nc2N)CC1 [compound 12] | < 25 | 
18 | CC[C@H]1CN(c2nc(N)c(C(=O)NC)nc2Cl)CCN1C1CCN(C(=O)c2cc(F)c(Cl)nc2N)CC1 [compound 13] | < 25 | 
19 | CC[C@H]1CN(c2nc(N)c(C(=O)NC(=N)NC(C)=O)nc2Cl)CCN1C1CCN(C(=O)c2ccc(Cl)nc2N)CC1 [compound 14] | < 25 | 
20 | CC[C@H]1CN(c2nc(N)c(C(=O)NC3CC3)nc2Cl)CCN1C1CCN(C(=O)c2cc(F)c(Cl)nc2Cl)CC1 [compound 16] | < 25 | 
21 | CC[C@H]1CN(c2nc(NCCOC)c(C(=O)NC3CC3)nc2Cl)CCN1C1CCN(C(=O)c2ccc(Cl)nc2N)CC1 [compound 17] | < 25 | 
22 | CC[C@H]1CN(c2nc(N)c(C(=O)N[C@@H]3CCC[C@H]3O)nc2Cl)CCN1C1CCN(C(=O)c2ccc(Cl)nc2N)CC1 [compound 18] | < 25 | 
23 | CC[C@H]1CN(c2nc(N)c(C(=O)NC3CC3)nc2Cl)CCN1C1CCN(C(=O)c2ccc(Cl)nc2Cl)CC1 [compound 19] | < 25 | 
24 | CC[C@H]1CN(c2nc(N)c(C(=O)NCCO)nc2Cl)CCN1C1CCN(Cc2ccc(Cl)nc2)CC1 [compound 20] | < 25 | 

Row | SMILES | IC50 [1] [nM] | IC50 (human CXCR3 (N-delta 4) SPA) [nM]
25 | CC[C@H]1CN(c2nc(N)c(C(=O)NCC3CC3)nc2Cl)CCN1C1CCN(C(=O)c2ccc(Cl)nc2N)CC1 [compound 21] | < 25 | 
26 | CC[C@H]1CN(c2nc(N)c(C(=O)NCCO)nc2Cl)CCN1C1CCN(C(=O)c2cc(F)c(Cl)nc2Cl)CC1 [compound 22] | < 25 | 
27 | CC[C@H]1CN(c2nc(N)c(C(=O)NC3(CO)CC3)nc2Cl)CCN1C1CCN(C(=O)c2ccc(Cl)nc2N)CC1 [compound 24] | < 25 | 
28 | CC[C@H]1CN(c2nc(N)c(C(=O)NCC(C)O)nc2Cl)CCN1C1CCN(C(=O)c2ccc(Cl)nc2N)CC1 (stereo partly shown) [compound 25] | < 25 | 
29 | CC[C@H]1CN(c2nc(N)c(C(=O)NCCC#N)nc2Cl)CCN1C1CCN(C(=O)c2ccc(Cl)nc2N)CC1 [compound 26] | < 25 | 
30 | CC[C@H]1CN(c2nc(N)c(C(=O)NC3CCCC3O)nc2Cl)CCN1C1CCN(C(=O)c2ccc(Cl)nc2N)CC1 (stereo partly shown) [compound 27] | < 25 | 
31 | CC[C@H]1CN(c2nc(N)c(C(=O)Nc3ncc[nH]3)nc2Cl)CCN1C1CCN(C(=O)c2ccc(Cl)nc2N)CC1 [compound 28] | < 25 | 
32 | CC[C@H]1CN(c2nc(N)c(C(=O)NCCO)nc2Cl)CCN1C1CCN(Cc2ccc(Cl)nc2Cl)CC1 [compound 29] | < 25 | 
33 | CC[C@H]1CN(c2nc(NCCC(=O)OC)c(C(=O)NC3CC3)nc2Cl)CCN1C1CCN(C(=O)c2ccc(Cl)nc2N)CC1 [compound 30] | < 25 | 
34 | CC[C@H]1CN(c2nc(N)c(C(N)=O)nc2Cl)CCN1C1CCN(Cc2ccc(Cl)nc2N)CC1 [compound 31] | < 25 | 
35 | CC[C@H]1CN(c2nc(N)c(C(=O)NCC3(O)CC3)nc2Cl)CCN1C1CCN(C(=O)c2ccc(Cl)nc2N)CC1 [compound 32] | < 25 | 
36 | CC[C@H]1CN(c2nc(N)c(C(=O)Nc3ccon3)nc2Cl)CCN1C1CCN(C(=O)c2ccc(Cl)nc2N)CC1 [compound 33] | < 25 | 
37 | CC[C@H]1CN(c2nc(N)c(C(=O)NCCNS(C)(=O)=O)nc2Cl)CCN1C1CCN(Cc2ccc(Cl)nc2N)CC1 [compound 34] | < 25 | 
38 | CC[C@H]1CN(c2nc(N)c(C(N)=O)nc2Cl)CCN1C1CCN(C(=O)c2ccc(Cl)nc2N)CC1 [compound 35] | < 25 | 
39 | CC[C@H]1CN(c2nc(N)c(C(=O)N[C@@H]3C[C@@H]3F)nc2Cl)CCN1C1CCN(C(=O)c2ccc(Cl)nc2N)CC1 [compound 37] | < 25 | 
40 | CC[C@H]1CN(c2nc(NC(=O)N(C)C)c(C(=O)NC3CC3)nc2Cl)CCN1C1CCN(C(=O)c2ccc(Cl)nc2N)CC1 [compound 38] | < 25 | 
41 | CC[C@H]1CN(c2nc(N)c(C(=O)NCCO)nc2Cl)CCN1C1CCN(Cc2ccc(OC)nc2)CC1 [compound 39] | < 25 | 
42 | CC[C@H]1CN(c2nc(N)c(C(=O)NCCO)nc2Cl)CCN1C1CCN(C(=O)c2ccc(Cl)nc2Cl)CC1 [compound 40] | < 25 | 
43 | CC[C@H]1CN(c2nc(N)c(C(N)=O)nc2Cl)CCN1C1CCN(C(=O)c2cc(F)c(Cl)nc2N)CC1 [compound 41] | < 25 | 
44 | CC[C@H]1CN(c2nc(N)c(C(=O)N[C@H]3CCC[C@@H]3O)nc2Cl)CCN1C1CCN(C(=O)c2ccc(Cl)nc2N)CC1 [compound 42] | < 25 | 
45 | CC[C@H]1CN(c2nc(N)c(C(=O)NC)nc2Cl)CCN1C1CCN(C(=O)c2ccc(Cl)nc2Cl)CC1 [compound 43] | < 25 | 
46 | CC[C@H]1CN(c2nc(N)c(C(=O)NC)nc2Cl)CCN1C1CCN(C(=O)c2ccc(Cl)nc2)CC1 [compound 44] | < 25 | 
47 | CC[C@H]1CN(c2nc(N)c(C(=O)NC)nc2Cl)CCN1C1CCN(C(=O)c2cc(F)c(Cl)nc2Cl)CC1 [compound 45] | < 25 | 
48 | CCNC(=O)NCc1nc(Cl)c(N2CCN(C3CCN(C(=O)c4ccc(Cl)nc4N)CC3)[C@@H](CC)C2)nc1N [compound 47] | < 25 | 
